# Test results as given in PMC7251097, “Aspartate/asparagine-β-hydroxylase: a high-throughput mass spectrometric assay for discovery of small molecule inhibitors” (Scientific Reports, 2020).
# Where two headings read alike, the source gives them in different places.
# Molecular target: T1, His6-AspH315–758 (human aspartate/asparagine-β-hydroxylase, AspH) (Homo sapiens, UniProt Q12797)
# T1 construct: N-Terminally His6-tagged human AspH315–758 (His6-AspH315–758) was produced in E. coli BL21 (DE3) cells; made in house; host or cells: E. coli BL21 (DE3), pET-28a(+) vector
# T1 sequence (Q12797 315-758): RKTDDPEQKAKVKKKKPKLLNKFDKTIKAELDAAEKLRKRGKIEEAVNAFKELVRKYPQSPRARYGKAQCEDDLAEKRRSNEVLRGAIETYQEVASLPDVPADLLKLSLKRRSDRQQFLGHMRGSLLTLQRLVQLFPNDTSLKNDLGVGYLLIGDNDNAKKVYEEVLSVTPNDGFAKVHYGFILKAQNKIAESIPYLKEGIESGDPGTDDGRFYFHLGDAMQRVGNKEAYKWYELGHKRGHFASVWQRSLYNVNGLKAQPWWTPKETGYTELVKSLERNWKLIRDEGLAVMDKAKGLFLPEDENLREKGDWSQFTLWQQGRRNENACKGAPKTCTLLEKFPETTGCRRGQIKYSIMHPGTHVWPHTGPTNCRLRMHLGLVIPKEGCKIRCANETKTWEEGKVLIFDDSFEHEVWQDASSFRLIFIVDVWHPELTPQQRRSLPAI
# Assay: SPE-MS AspH inhibition assay (LOPAC screen at fixed 20 μM and IC50 dose-response), hydroxylation of cyclic peptide hFX-CP101–119
# Assay type: biochemical
# [1] = LOPAC compound at 20uM, plate 3, conversion of substrate peptide
# [2] = LOPAC compound at fixed 20 uM, plate 1, normalised to DMSO and 2,4-PDCA controls
# [3] = LOPAC compound at fixed 20 uM, substrate conversion, plate 1
# [4] = LOPAC Plate 4, compound at 20 uM, substrate conversion
# [5] = LOPAC Plate 4, compound at 20 uM
# [6] = LOPAC compound at 20uM, plate 2, conversion of substrate peptide
# [7] = LOPAC compound at 20uM, plate 2, normalised to DMSO and 2,4-PDCA controls
smiles,measurement,setting,value
NC1CCN(O)C1=O (racemic) [(±)-HA-966],Plate 1 (% conversion),,36.52%
same,Plate 1 (% inhibition),,-1.94%
COCCc1ccc(OCC(O)CNC(C)C)cc1.O=C(O)C(O)C(O)C(=O)O (racemic) [(±)-Metoprolol (+)-tartrate],Plate 3 (% conversion),[1],16.57%
O=C(O)C1CCCNC1 (racemic) [(±)-Nipecotic acid],Plate 1 (% conversion),,30.40%
same,Plate 1 (% inhibition),,16.29%
NC[C@H](O)c1ccc(O)c(O)c1.O=C(O)C(O)C(O)C(=O)O (racemic) [(±)-Norepinephrine (+)bitartrate],Plate 1 (% inhibition),[2],92.57%
same,Plate 1 (% conversion),[3],4.78%
CN1CCN(C2Cc3ccccc3Sc3ccc(Cl)cc32)CC1.O=C(O)/C=C\C(=O)O (racemic) [(±)-Octoclothepin maleate],Plate 3 (% conversion),,45.22%
CCCN(CCc1ccccc1)C1CCc2c(O)cccc2C1.Cl (racemic) [(±)-PPHT hydrochloride],% conversion,[4],27.49%
CC(C)NCC(O)COc1cccc2ccccc12.Cl (racemic) [(±)-Propranolol hydrochloride],Plate 3 (% conversion),,40.68%
"Br.C=CCN1CCc2cc(O)c(O)cc2C(c2ccccc2)C1 (racemic) [(±)-SKF 38393, N-allyl-, hydrobromide]",% conversion,,11.46%
same,% inhibition,20 µM,73.28%
Cl.Oc1cc2c(cc1O)C(c1ccccc1)CNCC2 (racemic) [(±)-SKF-38393 hydrochloride],Plate 2 (% conversion),,10.11%
same,Plate 2 (% inhibition),20 µM,77.21%
CC(C)NCC(O)c1ccc(NS(C)(=O)=O)cc1.Cl (racemic) [(±)-Sotalol hydrochloride],% inhibition,[5],-12.79%
same,% conversion,[4],40.83%
CCN1CCCC1CNC(=O)c1cc(S(N)(=O)=O)ccc1OC (racemic) [(±)-Sulpiride],% inhibition,[5],-0.19%
same,% conversion,[4],36.54%
CNCC(O)c1ccc(O)cc1 (racemic) [(±)-Synephrine],% conversion,,25.88%
"O=C1c2c(O)cc(O)cc2O[C@H](c2ccc(O)c(O)c2)[C@H]1O (racemic) [(±)-Taxifolin, reference compound]",Inhibition at 20 µM [%],"AspH activity, fixed compound concentration 20 μM, initial LOPAC screen, 0.5%v/v DMSO",97.5%
same,% conversion,[4],3.21%
O=C1CCC(N2C(=O)c3ccccc3C2=O)C(=O)N1 (racemic) [(±)-Thalidomide],% inhibition,[5],-5.00%
same,% conversion,[4],38.18%
COc1cc(C(O)C(=O)O)ccc1O (racemic) [(±)-Vanillylmandelic acid],Plate 2 (% conversion),[6],32.67%
same,Plate 2 (% inhibition),[7],9.80%
COc1ccc(CCN(C)CCCC(C#N)(c2ccc(OC)c(OC)c2)C(C)C)cc1OC.Cl (racemic) [(±)-Verapamil hydrochloride],% conversion,,42.64%
same,% inhibition,20 µM,-18.08%
Cl.OC1CCCCC1N1CCC(c2ccccc2)CC1 (racemic) [(±)-Vesamicol hydrochloride],% conversion,,40.91%
same,% inhibition,20 µM,-13.00%
O=C(O)CCCCC1CCSS1 (racemic) [(±)-alpha-Lipoic Acid],% inhibition,[5],5.35%
same,% conversion,[4],34.64%
"O=C(O)[C@H]1CCCN[C@H]1C(=O)O (racemic) [(±)-cis-Piperidine-2,3-dicarboxylic acid]",% conversion,,39.41%
same,% inhibition,20 µM,-8.61%
C=CC(N)CCC(=O)O (racemic) [(±)-gamma-Vinyl GABA],% conversion,[4],37.96%
CCC1(c2ccc(N)cc2)CCC(=O)NC1=O (racemic) [(±)-p-Aminoglutethimide],Plate 1 (% conversion),,34.85%
same,Plate 1 (% inhibition),,3.03%
NC(Cc1ccc(Cl)cc1)C(=O)O (racemic) [(±)-p-Chlorophenylalanine],Plate 1 (% inhibition),[2],-1.40%
same,Plate 1 (% conversion),[3],36.34%
COC(=O)C1=C(C)NC(C)=C(C(=O)O[C@@H]2CCCN(Cc3ccccc3)C2)[C@@H]1c1cccc([N+](=O)[O-])c1.Cl (racemic) [Benidipine hydrochloride],Plate 2 (% conversion),[6],31.43%
same,Plate 2 (% inhibition),[7],13.51%
"CCCCS(=N)(=O)CCC(N)C(=O)O (racemic) [DL-Buthionine-[S,R]-sulfoximine]",Plate 1 (% conversion),,34.26%
same,Plate 1 (% inhibition),,4.80%
N[C@@H]1CONC1=O (racemic) [DL-Cycloserine],Plate 1 (% inhibition),[2],-17.16%
same,Plate 1 (% conversion),[3],41.64%
O=C(O)CNC(=O)C(CS)Cc1ccccc1 (racemic) [DL-Thiorphan],% conversion,,36.55%
same,inhibition at 20 µM,,-0.22%
CC(N)(Cc1ccc(O)cc1)C(=O)O (racemic) [DL-alpha-Methyl-p-tyrosine],Plate 1 (% conversion),,33.46%
same,Plate 1 (% inhibition),,7.19%
CCCCCCCCCCCCCCC[C@H](O)[C@H](N)CO (racemic) [DL-erythro-Dihydrosphingosine],Plate 2 (% conversion),[6],62.82%
same,Plate 2 (% inhibition),[7],-80.23%
CCN1CCC[C@H]1CNC(=O)c1c(O)c(Cl)cc(Cl)c1OC.O=C(O)C(O)C(O)C(=O)O (racemic) [S(+)-Raclopride L-tartrate],% conversion,[4],11.56%
CN(C)C[C@H](O)Cn1c2ccc(Br)cc2c2cc(Br)ccc21 (racemic) [Wiskostatin],% conversion,[4],31.93%
Br.CCCN1CCC2c3cc(O)ccc3CCC21 (racemic) [cis(+/-)-8-OH-PBZI hydrobromide],Plate 3 (% conversion),[1],33.20%
CC(C)(C)c1cc(C(C)(C)C)c2c(c1)C(O)(C(F)(F)F)C(=O)O2 (racemic) [rac BHFF],% inhibition,[5],72.02%
same,% conversion,[4],11.89%
"COc1ccc2c(c1OC)C(=O)OC2C1c2cc3c(cc2CCN1C)OCO3 (single isomer, unassigned; (+)) [(+)-Hydrastine]",Plate 2 (% conversion),,38.28%
same,inhibition at 20 µM,read-out: Plate 2 (% inhibition),-6.94%
"CC(N)Cc1cccc(C(F)(F)F)c1.Cl (single isomer, unassigned; (+)) [(+)-Norfenfluramine hydrochloride]",% conversion,,26.61%
"CC(C)NCC(O)c1ccc(O)c(O)c1.Cl (single isomer, unassigned; (-)) [(-)-Isoproterenol hydrochloride]",Plate 3 (% conversion),[1],6.03%
"Br.CN1[C@@H]2CC(OC(=O)[C@H](CO)c3ccccc3)C[C@H]1[C@@H]1O[C@@H]12 (single isomer, unassigned; (-)) [(-)-Scopolamine hydrobromide]",% inhibition,20 µM,-9.71%
"C[N+]1(C)[C@@H]2CC(OC(=O)[C@H](CO)c3ccccc3)C[C@H]1[C@@H]1O[C@@H]12.O=[N+]([O-])[O-] (single isomer, unassigned; (-)) [(-)-Scopolamine methyl nitrate]",% conversion,,25.39%
"CC(N)C(O)c1ccc(O)c(O)c1 (single isomer, unassigned; (-)) [(-)-alpha-Methylnorepinephrine]",Plate 2 (% conversion),,7.36%
same,Plate 2 (% inhibition),20 µM,85.40%
Nc1nc(Cl)nc2c1ncn2[C@@H]1O[C@H](COP(=O)(O)OP(=O)(O)OP(=O)(O)O)C(O)C1O (stereo in doubt),Plate 2 (% conversion),[6],11.93%
same,Plate 2 (% inhibition),[7],71.75%
Nc1ncnc2c1nc(Sc1ccc(Cl)cc1)n2C1OC2COP(=O)(O)OC2C1O (stereo in doubt) [8-(4-Chlorophenylthio)-cAMP sodium],Plate 1 (% inhibition),[2],-2.91%
same,Plate 1 (% conversion),[3],36.85%
CCCCC1(C2CCCC2)Cc2cc(OCC(=O)O)c(Cl)c(Cl)c2C1=O (stereo in doubt) [R(+)-Butylindazone],Plate 2 (% conversion),[6],33.18%
same,Plate 2 (% inhibition),[7],8.29%
"Cn1c(=O)c2[nH]c(-c3ccccc3)nc2n(C)c1=O [1,3-Dimethyl-8-phenylxanthine]",Plate 3 (% conversion),[1],35.64%
